Measured values reported in paper PMC6356585 (Viruses, 2018).
Where a name gives a salt, the structure may show the parent alone. Read-outs that look alike come from different tables or passages of the source.

Legend:
ZIKV IbH = assay: Autophagy compound screen in Vero cells infected with ZIKV IbH; type: cell-based, Zika virus; conditions: African-lineage ZIKV IbH, 10 µM
ZIKV SPH [1] = assay: Autophagy compound library screen, ZIKV SPH titer (TCID50) in C6/36 cells; type: cell-based, Zika virus; conditions: for activity at 10 µM: Zika virus, read-out: ZIKV SPH Relative Titer in C6/36 Cells
ZIKV SPH [2] = assay: Autophagy compound library screen, ZIKV SPH titer (TCID50) in Vero cells; type: cell-based, Zika virus; conditions: for activity at 10 µM: Zika virus, Vero, read-out: ZIKV SPH Relative Titer in Vero Cells
Vero cells = assay: Cell viability (CellTiter-Glo) of Vero cells; type: cell-based
C6/36 cells = type: cell-based, Ae. albopictus
[3] = tested on: autophagic vesicles in Vero cells; assay: Autophagy detection (CYTO-ID) in Vero cells; type: cell-based; conditions: 10 µM compound, 24 h, CYTO-ID green MFI vs DMSO control
ZIKV = tested on: ZIKV; design: method as in ref 12 = [12]; conditions: cited from earlier work
ZIKV SPH [4] = assay: Time-of-addition assay in Vero cells; type: cell-based, Zika virus; conditions: Vero, 24 hpi
[5] = 10 µM compound, MOI 0.1, 96 h, TCID50, ± SEM, three independent trials
[6] = 10 µM compound, MOI 0.1, 40 h, TCID50, ± SEM, three independent trials
[7] = 10 µM compound, 96 h, CellTiter-Glo, ± SEM, three independent trials
[8] = C6/36, 10 µM compound, MOI 0.1, 96 h, TCID50, ± SEM, three independent trials
[9] = 10 µM compound, 40 h, CellTiter-Glo, ± SEM, three independent trials

Row | Compound | ZIKV SPH Relative Titer in C6/36 Cells (ZIKV SPH [1]; [5]) | ZIKV SPH Relative Titer in Vero Cells (ZIKV SPH [2]; [6]) | C6/36 Viability (C6/36 cells; [7]) | activity at 10 µM (ZIKV SPH [1]; [8]) | Vero Viability (Vero cells; 10 µM) | Vero Viability (Vero cells; [9]) | other results
1 | C=CC(C)(C)c1cc(/C=C/C(=O)c2ccc(O)cc2)c(OC)cc1O [Licochalcone A] | 51.8 ± 28.5% of untreated control | 7.2 ± 2.9% of untreated control | 43 ± 2% of untreated control | – | – | – | ZIKV IbH titer in Vero cells compared to control (ZIKV IbH): reduced ZIKV IbH titers; ZIKV SPH Relative Titer in Vero Cells (ZIKV SPH [2]; 10 µM compound, MOI 0.1, 40 h, TCID50, ± SEM, three independent trials, listed as licochalcone A): below 10% of untreated control; Vero Viability (Vero cells; 10 µM compound, 40 h, CellTiter-Glo, ± SEM, three independent trials, 10 µM): 100.7 ± 9.4% of untreated control; Vero Viability (Vero cells; 10 µM compound, 40 h, CellTiter-Glo, ± SEM, three independent trials, listed as licochalcone A, 10 µM): above 80% of untreated control; Autophagy Activity Factor (AAF) [3]: 12.33
2 | CO[C@H]1C[C@@H]2CC[C@@H](C)[C@@](O)(O2)C(=O)C(=O)N2CCCC[C@H]2C(=O)O[C@H]([C@H](C)C[C@@H]2CC[C@@H](O)[C@H](OC)C2)CC(=O)[C@H](C)/C=C(\C)[C@@H](O)[C@@H](OC)C(=O)[C@H](C)C[C@H](C)/C=C/C=C/C=C/1C [Rapamycin] | slightly decreased production | increased ZIKV titers | – | 75.7 ± 47.7% | 66.0 ± 2.6% of untreated control | – | ZIKV SPH Relative Titer in C6/36 Cells (ZIKV SPH [1]; 10 µM compound, MOI 0.1, 96 h, TCID50, ± SEM, three independent trials, listed as rapamycin): slightly decreased titers; C6/36 Viability (C6/36 cells; 10 µM): 59 ± 7.3% of untreated control; Autophagy Activity Factor (AAF) [3]: 7.74
3 | CNCCCN1c2ccccc2CCc2ccc(Cl)cc21.Cl [Norclomipramine HCl] | 13.4 ± 8.7% of untreated control | 3.9 ± 0.5% of untreated control | 19 ± 8.9% of untreated control | – | – | 48.7 ± 22.9% of untreated control | –
4 | O=C1NCN(c2ccccc2)C12CCN(CCCC(c1ccc(F)cc1)c1ccc(F)cc1)CC2 [Fluspirilene] | – | – | 26 ± 10.3% of untreated control | 1 ± 0.7% | 56.7 ± 16% of untreated control | – | activity at 10 µM (ZIKV SPH [2]; [6]): 2.5 ± 0.6%
5 | [Cl-].[Li+] [Lithium Chloride] | 167.9 ± 68.4% of untreated control | 85.4 ± 18.7% of untreated control | 111 ± 10.7% of untreated control | – | – | 87.0 ± 1% of untreated control | –
6 | C[C@H](CCC(=O)[O-])[C@H]1CC[C@H]2[C@@H]3CC[C@@H]4C[C@H](O)CC[C@]4(C)[C@H]3C[C@H](O)[C@]12C.[Na+] [Deoxycholate·Na] | 90.6 ± 12.5% of untreated control | 76.6 ± 16.6% of untreated control | 83 ± 1% of untreated control | – | 95.3 ± 2.6% of untreated control | – | –
7 | CCN(CCO)CCCC(C)Nc1ccnc2cc(Cl)ccc12 (centres unmarked) [Hydroxychloroquine] | decreased titers | decreased titers | – | 25.1 ± 12.6% | 85.3 ± 8.4% of untreated control | – | C6/36 Viability (C6/36 cells; 10 µM): 35 ± 9.7% of untreated control; ZIKV spread in a mouse model (ZIKV): blocked ZIKV spread
8 | O=S(=O)(F)Cc1ccccc1 [PMSF] | 258.0 ± 145.2% of untreated control | 89.0 ± 7% of untreated control | 81 ± 6.4% of untreated control | – | – | 98.3 ± 2% of untreated control | –
9 | COc1cc(CNC(=O)CCCCCCC(C)C)ccc1O [Dihydrocapsaicin] | – | – | – | 64.1 ± 16% | 92.3 ± 3.8% of untreated control | – | activity at 10 µM (ZIKV SPH [2]; [6]): 28.7 ± 10.5%; C6/36 Viability (C6/36 cells; 10 µM): 61 ± 2.2% of untreated control
10 | CNc1ccc2oc(C[C@H]3O[C@@]4(CC[C@H]3C)O[C@H]([C@H](C)C(=O)c3ccc[nH]3)[C@H](C)C[C@H]4C)nc2c1C(=O)O [Compound A23187, A23187] | 0.0 ± 0% of untreated control | 0.5 ± 0.5% of untreated control | 1 ± 0% of untreated control | – | – | 17.0 ± 6.7% of untreated control | –
11 | CCCCc1oc2ccccc2c1C(=O)c1cc(I)c(OCCN(CC)CC)c(I)c1 [Amiodarone HCl] | – | – | – | 2 ± 0.5% | – | – | ZIKV IbH titer in Vero cells compared to control (ZIKV IbH): reduced ZIKV IbH titers; Autophagy Activity Factor (AAF) [3]: 60.40
12 | CN1CCN(CCCN2c3ccccc3Sc3ccc(C(F)(F)F)cc32)CC1.Cl.Cl [Trifluoperazine·2HCl] | 0.3 ± 0.3% of untreated control | 2.8 ± 0.7% of untreated control | 10 ± 3.8% of untreated control | – | 51.0 ± 22.1% of untreated control | – | –
13 | CNC(=O)c1cc(Oc2ccc(NC(=O)Nc3ccc(Cl)c(C(F)(F)F)c3)cc2)ccn1 [Sorafenib tosylate] | – | – | 23 ± 8.8% of untreated control | 9.4 ± 8.8% | – | 58.3 ± 9.9% of untreated control | activity at 10 µM (ZIKV SPH [2]; [6]): 5.8 ± 1.8%
14 | Tunicamycin | 1.8 ± 0.8% of untreated control | 0.5 ± 0.5% of untreated control | 47 ± 7.6% of untreated control | – | – | 56.3 ± 8.7% of untreated control | –
15 | Cl.N [Ammonium chloride] | – | – | – | – | – | – | ZIKV replication, time-of-addition (ZIKV SPH [4]; 30 mM ammonium chloride added later in infection): less inhibitory; ZIKV replication, time-of-addition (ZIKV SPH [4]; 30 mM ammonium chloride, 2 h prior to infection and at the time of infection): inhibited ZIKV replication
16 | CCCCCCCCCCCCCCC[C@@H](O)[C@H](CO)NC(C)=O [C2-dihydroceramide] | 262.1 ± 51.7% of untreated control | 36.5 ± 3% of untreated control | 97 ± 5.8% of untreated control | – | 101.3 ± 3.7% of untreated control | – | –
17 | CCCCCC[C@@H]([C@@H](C)O)n1cnc2c(N)ncnc21.Cl [EHNA·HCl] | 36.4 ± 9.1% of untreated control | 81.0 ± 7.6% of untreated control | 55 ± 4.2% of untreated control | – | 92.3 ± 2% of untreated control | – | –
18 | NC(=O)c1ncn([C@@H]2O[C@H](CO)[C@@H](O)[C@H]2O)c1N [AICAR] | 252.0 ± 115% of untreated control | 112.3 ± 32.3% of untreated control | 125 ± 16.4% of untreated control | – | – | 90.0 ± 11.1% of untreated control | –
19 | COC(=O)C1=C(C)NC(C)=C(C(=O)OCCCN2CCC(c3ccccc3)(c3ccccc3)CC2)[C@H]1c1cccc([N+](=O)[O-])c1 [Niguldipine] | – | – | – | – | 30.0 ± 14.2% of untreated control | – | activity at 10 µM (ZIKV SPH [1]; C6/36, 96 h): 0%; activity at 10 µM (ZIKV SPH [2]; 40 h): 0.2 ± 0.1%; C6/36 Viability (C6/36 cells; 10 µM): 5 ± 2.1% of untreated control
20 | O=C(CC(=O)C(F)(F)F)c1cccs1 [TTFA] | 72.8 ± 9.6% of untreated control | 24.4 ± 7.6% of untreated control | 78 ± 19.9% of untreated control | – | – | 90.0 ± 3.5% of untreated control | –
